Results as given in the supplement of paper PMC13380429.

Legend:
Conditions in all cases: 72 h
HepG2 [1] = experiment: relative viability EC50 (midpoint between 100% and the lowest measured viability); higher = less toxic
U2OS [2] = experiment: as above
Vero E6 [3] = experiment: as above
Calu-3 [4] = experiment: as above
Caco-2 [5] = experiment: as above
HepG2 [6] = experiment: cell viability relative to DMSO; higher = less toxic
U2OS [7] = experiment: as above
Vero E6 [8] = experiment: as above
Calu-3 [9] = experiment: as above
Caco-2 [10] = experiment: as above
HepG2 [11] = experiment: drug sensitivity score (DSS) for viability; higher = more toxic; extreme values may be limits of the assay
U2OS [12] = experiment: as above
Vero E6 [13] = experiment: as above
Calu-3 [14] = experiment: as above
Caco-2 [15] = experiment: as above

Structure (SMILES) | relative viability EC50 (HepG2 [1]) [µM] | relative viability EC50 (U2OS [2]) [µM] | relative viability EC50 (Vero E6 [3]) [µM] | relative viability EC50 (Calu-3 [4]) [µM] | relative viability EC50 (Caco-2 [5]) [µM] | cell viability (HepG2 [6]; 1 nM) [%] | cell viability (HepG2 [6]; 10 nM) [%] | cell viability (HepG2 [6]; 100 nM) [%] | cell viability (HepG2 [6]; 1000 nM) [%] | cell viability (HepG2 [6]; 10000 nM) [%] | cell viability (U2OS [7]; 1 nM) [%] | cell viability (U2OS [7]; 10 nM) [%] | cell viability (U2OS [7]; 100 nM) [%] | cell viability (U2OS [7]; 1000 nM) [%] | cell viability (U2OS [7]; 10000 nM) [%] | cell viability (Vero E6 [8]; 1 nM) [%] | cell viability (Vero E6 [8]; 10 nM) [%] | cell viability (Vero E6 [8]; 100 nM) [%] | cell viability (Vero E6 [8]; 1000 nM) [%] | cell viability (Vero E6 [8]; 10000 nM) [%] | cell viability (Calu-3 [9]; 1 nM) [%] | cell viability (Calu-3 [9]; 10 nM) [%] | cell viability (Calu-3 [9]; 100 nM) [%] | cell viability (Calu-3 [9]; 1000 nM) [%] | cell viability (Calu-3 [9]; 10000 nM) [%] | cell viability (Caco-2 [10]; 1 nM) [%] | cell viability (Caco-2 [10]; 10 nM) [%] | cell viability (Caco-2 [10]; 100 nM) [%] | cell viability (Caco-2 [10]; 1000 nM) [%] | cell viability (Caco-2 [10]; 10000 nM) [%] | drug sensitivity score (HepG2 [11]) | drug sensitivity score (U2OS [12]) | drug sensitivity score (Vero E6 [13]) | drug sensitivity score (Calu-3 [14]) | drug sensitivity score (Caco-2 [15])
C[C@H](Cc1cc2c(c(C(N)=O)c1)N(CCCO)CC2)NCCOc1ccccc1OCC(F)(F)F [silodosin] | > 10 | > 10 | > 10 | > 10 | > 10 | 95 | 97.7 | 103 | 102 | 99.9 | 101 | 93.5 | 98.9 | 95.6 | 97.6 | 93.9 | 102 | 97.1 | 101 | 108 | 96 | 87.2 | 97 | 101 | 93.6 | 91.6 | 93.1 | 106 | 92 | 88.7 | 0 | 0 | 0 | 0 | 0
CC(=O)N(c1onc(C)c1C)S(=O)(=O)c1ccc(N)cc1 [sulfisoxazole-acetyl] | > 10 | > 10 | > 10 | > 10 | > 10 | 96.9 | 105 | 114 | 103 | 97.4 | 101 | 97.5 | 101 | 97.7 | 98.7 | 104 | 107 | 103 | 96.9 | 98.8 | 96.7 | 102 | 93.6 | 102 | 102 | 109 | 106 | 110 | 102 | 90.9 | 0 | 0 | 0 | 0 | 0
CCCCc1ccc(O)cc1O [rucinol] | > 10 | > 10 | > 10 | > 10 | > 10 | 110 | 87.5 | 107 | 92.5 | 81.5 | 101 | 99 | 99.8 | 104 | 96.7 | 111 | 84.9 | 106 | 91.8 | 103 | 101 | 98 | 83.4 | 102 | 83.8 | 102 | 95.3 | 83.5 | 114 | 106 | 1.3 | 0 | 0 | 0.1 | 0
CCc1oc2ccccc2c1C(=O)c1cc(Br)c(O)c(Br)c1 [benzbromarone] | > 10 | > 10 | > 10 | > 10 | > 10 | 109 | 101 | 96.4 | 102 | 102 | 99.9 | 94.8 | 102 | 102 | 105 | 103 | 108 | 104 | 105 | 99.8 | 104 | 90.5 | 105 | 99.4 | 107 | 101 | 93.5 | 105 | 83.1 | 89.9 | 0 | 0 | 0 | 0 | 1.7
CCCCC/C=C\C=C\CCCCCCCCC(=O)O [trans-10,cis-12-conjugated-linoleic-acid] | > 10 | > 10 | > 10 | > 10 | > 10 | 107 | 92 | 90.8 | 101 | 100 | 97.8 | 96.8 | 103 | 97.4 | 102 | 109 | 108 | 102 | 102 | 99.1 | 102 | 96.1 | 100 | 96.2 | 101 | 94.9 | 101 | 96.6 | 101 | 99.6 | 0 | 0 | 0 | 0 | 0
CNC(=O)O[C@H]1COc2ccc(N3CCN(C4COC4)CC3)cc2[C@@H]1NC(=O)c1ccc(F)cc1 | > 10 | > 10 | > 10 | > 10 | > 10 | 94.9 | 101 | 94.4 | 105 | 91.8 | 96.6 | 101 | 95.7 | 104 | 102 | 101 | 98.2 | 106 | 104 | 94.1 | 106 | 88.4 | 92.1 | 95.4 | 101 | 90.5 | 103 | 89.9 | 101 | 98.5 | 0 | 0 | 0 | 0 | 0
Oc1cc2c(cc1O)[C@H](Cc1cccc3ccccc13)NCC2 [CKD-712] | > 10 | > 10 | > 10 | > 10 | > 10 | 106 | 101 | 97.9 | 99.7 | 84.8 | 101 | 93.8 | 98.6 | 112 | 96.6 | 102 | 100 | 100 | 99 | 95.7 | 105 | 95 | 108 | 105 | 102 | 88.6 | 94.2 | 105 | 98.4 | 92.4 | 0.3 | 0 | 0 | 0 | 0
OC[C@H]1O[C@@H](OCCc2ccc(O)cc2)[C@H](O)[C@@H](O)[C@@H]1O [salidroside] | > 10 | > 10 | > 10 | > 10 | > 10 | 91.4 | 97 | 109 | 87 | 104 | 102 | 93.9 | 96 | 103 | 101 | 95.5 | 94.8 | 93.2 | 99.8 | 107 | 96 | 106 | 102 | 87.2 | 113 | 103 | 92.2 | 92.3 | 106 | 104 | 0 | 0 | 0 | 0 | 0
Cc1ccc(S(=O)(=O)NCc2ccccc2)cc1 [BTS] | > 10 | > 10 | > 10 | > 10 | > 10 | 102 | 110 | 95.3 | 110 | 107 | 96.7 | 97.4 | 107 | 98 | 102 | 104 | 101 | 91.7 | 95.9 | 93.4 | 98.1 | 100 | 106 | 102 | 112 | 95.1 | 99.3 | 101 | 90 | 99.9 | 0 | 0 | 0 | 0 | 0
NC(CO)(CO)CO [trometamol] | > 10 | > 10 | > 10 | > 10 | > 10 | 101 | 93.7 | 106 | 86 | 100 | 93.3 | 96.6 | 98.8 | 101 | 107 | 102 | 98.6 | 106 | 86.4 | 95.4 | 92.4 | 117 | 103 | 101 | 108 | 93.4 | 102 | 111 | 112 | 97.3 | 0 | 0 | 0 | 0 | 0
O=C(O)c1cc(C(=O)O)c(C(=O)N(Cc2cccc(Oc3ccccc3)c2)[C@H]2CCCc3ccccc32)cc1C(=O)O | > 10 | > 10 | > 10 | > 10 | > 10 | 98.5 | 106 | 102 | 107 | 98.4 | 102 | 94.4 | 99.4 | 91.3 | 109 | 98.2 | 102 | 96.9 | 98.9 | 102 | 102 | 98.8 | 103 | 104 | 106 | 106 | 99.1 | 90.4 | 99.8 | 103 | 0 | 0 | 0 | 0 | 0
Oc1ccc2c3c1O[C@H]1c4[nH]c5ccccc5c4C[C@@]4(O)[C@@H](C2)N(CC2CC2)CC[C@]314 [naltrindole] | > 10 | > 10 | > 10 | > 10 | > 10 | 103 | 97.7 | 101 | 106 | 91.7 | 98.7 | 100 | 102 | 111 | 97.9 | 95.9 | 102 | 105 | 95.4 | 92.1 | 98.5 | 98.5 | 103 | 101 | 83.9 | 102 | 94.6 | 98.1 | 96.5 | 106 | 0 | 0 | 0 | 0.3 | 0
C=CC(=O)Nc1cc(Nc2nccc(-c3cn(C)c4ccccc34)n2)c(OC)cc1N(C)CCN(C)C [osimertinib] | 1.8 | 1.86 | 1.19 | 0.374 | 1.44 | 99.6 | 98.8 | 104 | 82.4 | 6 | 95.7 | 99.2 | 92.3 | 83.6 | 5 | 95.9 | 93.8 | 90.4 | 57.7 | 0 | 92.6 | 92.9 | 72.2 | 36.7 | 0.7 | 82.7 | 97.2 | 94.2 | 72.6 | 9.1 | 8.1 | 8 | 10.4 | 15.8 | 8.8
